# According to US12083102B2, “Method for treating inflammatory disorders” (DIMERIX BIOSCIENCE PTY LTD, priority 2011, dated 2024):
# “Also recorded” adds a separate entry of the source.
# How the values were obtained:
# [1] = test system: monocytes; settings: Yokochi (2001); cited from earlier work
# [2] = test system: MCP-1; settings: Yokochi (2001); Yamada (2004); cited from earlier work
# [3] = test system: mouse models of multiple sclerosis, renal ischemia-reperfusion injury, ureter obstruction, diabetic nephropathy; rat model of arthritis; settings: Tesch (2008); cited from earlier work
# [4] = target: CCR2-Rluc8 and HA-tagged AT1R (Homo sapiens, UniProt P30556+P41597); settings: HEK293FT cells, FIG. 7 bottom; for MCP-1-induced BRET, CCR2-Rluc8, β-arrestin2-Venus and HA-tagged AT1R: 100 nM MCP-1
# [5] = target: T1, AT1R-Rluc8 (Homo sapiens, UniProt P30556); assay type: cell-based; settings: HEK293FT cells; antagonist 10 μM; 100 nM AngII; FIG. 5 middle
# T1 construct: expressed in transfected cells; host or cells: HEK293FT
# T1 sequence (P30556 1-359): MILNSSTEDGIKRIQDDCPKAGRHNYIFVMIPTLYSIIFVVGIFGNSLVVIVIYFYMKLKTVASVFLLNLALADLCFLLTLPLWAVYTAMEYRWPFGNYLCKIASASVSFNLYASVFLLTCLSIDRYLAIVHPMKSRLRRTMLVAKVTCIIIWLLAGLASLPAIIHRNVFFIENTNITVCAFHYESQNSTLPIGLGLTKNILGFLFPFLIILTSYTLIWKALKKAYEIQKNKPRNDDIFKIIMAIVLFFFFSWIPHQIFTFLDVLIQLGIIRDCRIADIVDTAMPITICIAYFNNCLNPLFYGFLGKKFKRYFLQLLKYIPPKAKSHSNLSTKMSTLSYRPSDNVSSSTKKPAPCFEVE
# [6] = target: T2, AT1R-Rluc8 and the untagged CCR2 (Homo sapiens, UniProt P30556+P41597); assay type: cell-based; settings: HEK293FT cells, FIG. 5 bottom; for MCP-1-induced BRET, AT1R-Rluc8, β-arrestin2-Venus and untagged CCR2: 100 nM MCP-1
# T2 construct: expressed in transfected cells; host or cells: HEK293FT
# From the text: (§3) Data represent mean±SEM of three independent experiments performed in triplicate.
# HEK293FT cells were transiently transfected with plasmids coding for β-arrestin2-Venus and the indicated receptors: CCR2-Rluc8 (top panel), AT1R-Rluc8 (middle panel) or AT1R-Rluc8 and the untagged CCR2 (bottom panel).
# [7] = target: T1, AT1R-Rluc8; assay: Inositol phosphate (IP1) production (Example 4, top panel); assay type: cell-based; settings: HEK293FT cells; antagonist 10 μM; 100 nM AngII; no CCR2; FIG. 6 top
# [8] = target: T3, AT1R-Rluc8 and CCR2 (Homo sapiens, UniProt P30556+P41597); assay: Inositol phosphate (IP1) production (Example 4, bottom panel); assay type: cell-based; settings: HEK293FT cells, FIG. 6 bottom; for AngII-induced IP1 production, cells co-expressing AT1R-Rluc8 and CCR2 / MCP-1-induced IP1 production, cells co-expressing AT1R-Rluc8 and CCR2: antagonist 10 μM; for AngII-induced IP1 production, cells co-expressing AT1R-Rluc8 and CCR2: 100 nM AngII; for MCP-1-induced IP1 production, cells co-expressing AT1R-Rluc8 and CCR2: 100 nM MCP-1
# T3 construct: expressed in transfected cells; host or cells: HEK293FT
# From the text: as §3
# [9] = target: T3, AT1R-Rluc8 and CCR2; assay: Inositol phosphate (IP1) production (Example 6, bottom panel); assay type: cell-based; settings: HEK293FT cells, FIG. 8 bottom
# Protocol: (§1) Data are shown as induced IP1 (arbitrary units).
# (§2) The cells were then lysed by adding the HTRF® assay reagents, the Terbium Cryptate-labeled anti-IP1 antibody, and the d2-labeled IP1 analog, previously diluted in the lysis buffer containing 1% Triton X-100. The assay was incubated for 1 hour at room temperature, and Terbium Cryptate fluorescence and the time resolved FRET signal were measured 50 μs after excitation at 340, 620, and 665 nm, respectively, using the EnVision 2102 multilabel plate reader (PerkinElmer). Data are shown as induced IP1 (arbitrary units). The IP-One Tb kit is a competition assay and so induction of IP1 results in a decrease in absolute assay signal. Therefore, the induced IP1 (arbitrary units) is generated by subtracting the ligand-induced assay signal from the basal assay signal.
# [10] = target: T1, AT1R-Rluc8; assay: Inositol phosphate (IP1) production (Example 6, top panel); assay type: cell-based; settings: HEK293FT cells; antagonist 10 μM; 100 nM AngII; no CCR2; FIG. 8 top
# Protocol: as §1, §2
# [11] = test system: diabetic nephropathy; settings: patients; Lewis (1993); cited from earlier work
# T2 sequence (P41597 whole entry, one chain of several): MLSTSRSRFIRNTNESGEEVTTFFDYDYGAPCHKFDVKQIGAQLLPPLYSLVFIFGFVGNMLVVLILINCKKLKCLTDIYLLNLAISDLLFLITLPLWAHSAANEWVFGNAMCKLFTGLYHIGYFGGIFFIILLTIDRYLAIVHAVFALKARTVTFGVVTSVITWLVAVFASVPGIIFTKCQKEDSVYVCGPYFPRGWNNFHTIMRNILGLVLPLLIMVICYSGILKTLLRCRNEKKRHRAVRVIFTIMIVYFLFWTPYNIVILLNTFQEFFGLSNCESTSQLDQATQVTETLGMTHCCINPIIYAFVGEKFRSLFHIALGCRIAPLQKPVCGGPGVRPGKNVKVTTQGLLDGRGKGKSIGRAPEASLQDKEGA
# T3 sequence (P41597 whole entry, one chain of several): as above
# CCR2-Rluc8 and HA-tagged AT1R, sequence (P41597 whole entry, one chain of several): as above
Molecule,"inflammation in mouse models of multiple sclerosis, renal ischemia-reperfusion injury, ureter obstruction, diabetic nephropathy and a rat model of arthritis [3]","MCP-1-induced BRET, CCR2-Rluc8, β-arrestin2-Venus and HA-tagged AT1R ([4]; antagonist 10 μM)","AngII-induced BRET response, AT1R-Rluc8 and β-arrestin2-Venus [5]","MCP-1-induced BRET, AT1R-Rluc8, β-arrestin2-Venus and untagged CCR2 ([6]; antagonist 10 μM)","AngII-induced IP1 production, cells expressing AT1R-Rluc8 [7]","AngII-induced IP1 production, cells co-expressing AT1R-Rluc8 and CCR2 [8]","MCP-1-induced IP1 production, cells co-expressing AT1R-Rluc8 and CCR2 [8]",other results
3-oxygermylpropionic acid polymer [Propagermanium],suppress inflammation,,,,,,,in vitro chemotactic migration of monocytes by MCP-1 [1]: specifically inhibit; also recorded: inhibits; MCP-1 binding [2]: does not inhibit
CCO[C@H]1CN(C2CCC(O)(c3ccc4c(c3)OCO4)CC2)C[C@@H]1NC(=O)CNC(=O)c1cccc(C(F)(F)F)c1 (stereo partly drawn) [INCB3344],suppress inflammation,,,,,,,
"CCCCC1=NC2(CCCC2)C(=O)N1Cc1ccc(-c2ccccc2-c2nn[nH]n2)cc1 [Irbesartan, 2-butyl-3-({4-[2-(2H-1,2,3,4-tetrazol-5-yl)phenyl]phenyl}methyl)-1,3-diazaspiro[4.4]non-1-en-4-one]",,not the MCP-1-promoted BRET signal,substantially blocked,not the MCP-1-induced BRET,substantially abolished,substantially inhibiting,partially reduced,"AngII-induced BRET, CCR2-Rluc8, β-arrestin2-Venus and HA-tagged AT1R ([4]; antagonist 10 μM, 100 nM AngII): partially blocked; AngII-induced BRET, AT1R-Rluc8, β-arrestin2-Venus and untagged CCR2 ([6]; antagonist 10 μM, 100 nM AngII): substantially block"
Cc1ccc2c(c1)C1(CCN(CCc3nc(-c4ccccc4)oc3C)CC1)OC(=O)N2 [RS504393],suppress inflammation,substantially inhibited,not RS504393 substantially blocked,partially blocked,"not RS504393, substantially abolished",little effect,substantially and selectively inhibited,"AngII-induced IP1 production, cells co-expressing AT1R-Rluc8 and CCR2 ([9]; antagonist 10 μM, 100 nM AngII): little effect; MCP-1-induced IP1 response, cells co-expressing AT1R-Rluc8 and CCR2 ([9]; antagonist 10 μM, 100 nM MCP-1): substantially and selectively inhibited; BRET response with combined treatment with MCP-1 and AngII, CCR2-Rluc8 and HA-tagged AT1R ([4]; antagonist(s) 10 μM, 100 nM MCP-1 and AngII): a substantial BRET signal remained; AngII-induced IP1 production, cells expressing AT1R-Rluc8 [10]: not RS504393, abolished"
C[C@H](CS)C(=O)N1CCC[C@H]1C(=O)O [captopril],,,,,,,,progression of diabetic nephropathy [11]: did not halt the progression of diabetic nephropathy in the vast majority of patients
"MCP-1: Monocyte chemotactic protein-1, also known as monocyte chemoattractant protein-1",,,,,,,,"agonist-stimulated IP1 response, cells co-expressing AT1R-Rluc8 and CCR2 ([9]; 100 nM agonist): seems to stimulate a partial IP1 response; agonist-induced BRET, AT1R-Rluc8, β-arrestin2-Venus and untagged CCR2 ([6]; 100 nM agonist): induced BRET increases to different degrees; agonist-stimulated IP1 response, cells co-expressing AT1R-Rluc8 and CCR2 ([8]; 100 nM agonist): seems to stimulate a partial IP1 response"
